The values below are quoted from earlier work in US3963579A, “Microbiological process for the production of pepstatins” (Sanraku-Ocean Co., Ltd., priority 1973, dated 1976).

Square brackets hold non-standard residues; d marks the D form. Peptide text beside a SMILES is read from it. * marks the point of attachment. Sta = CC(C)C[C@H](N)[C@@H](O)CC(=O)O; Isovaleryl = CC(C)CC(=O)*

For the data set the following is noted: clinical, reported.

Regarding `CC(C)CC(=O)N[C@H](C(=O)N[C@H](C(=O)N[C@@H](CC(C)C)[C@@H](O)CC(=O)N[C@@H](C)C(=O)N[C@@H](CC(C)C)[C@@H](O)CC(=O)O)C(C)C)C(C)C` [pepstatin A] (Isovaleryl-VV[Sta]A[Sta]-OH), the “effect on gastric ulcers clinically” value is listed as “takes effect on gastric ulcers clinically”.
